# According to US20100003217A1, “Compounds and Pharmaceutical Compositions for the Treatment of Viral Infections” (priority 2008, published 2010):
# Where “and” joins values, the source holds several entries; their conditions need not be identical. Equal entries are not always repeated.
# Key:
# [1] = Metabolite profiling in monkey liver microsomes; type: in vitro ADME; set-up: key: +: peak detected; ?: peak observed; ND: not detected; conditions: 50 μM Compound 1, 2 hours
# Method: Preliminary identification of putative metabolites was conducted by comparing the retention time of observed metabolites with retention times obtained with chemically synthesized standards using the following HPLC-UV method:
# Incubations with liver microsomes, liver cytosol or pig liver esterase were conducted in a final volume of 0.1 mL per incubation time point. Pooled microsomal protein (1.0 mg/mL) suspended in incubation buffer (0.1 M potassium phosphate, pH 7.4) was incubated for 2 hours at 37° C. with 50 μM Compound 1 from a stock solution in DMSO (final DMSO concentration was 0.1%); the microsomal reaction was initiated by the addition of an NADPH regenerating system (1.3 mM NADP^+, 3.3 mM glucose-6-phosphate, 0.4 U/ml glucose-6-phosphate dehydrogenase, and 3.3 mM MgCl2, final concentrations). Incubations with no NADPH or no protein served as controls. Reactions were terminated by the addition of 0.1 mL of stop solution (acetonitrile). The samples were vortex-mixed for 30 sec and then centrifuged at 10,000×g for 10 min. The supernatant was dried using a Labconco CentriVap concentrator and the dry residue reconstituted in water, transferred to an HPLC glass vial and analyzed by HPLC-UV method 2 (described above).
# Results: Preliminary identification was accomplished by comparing LC elution of metabolites with that of available synthetic standards of putative metabolites (FIG. 2). Metabolites U1, U2 and U3 were characterized based on the retention times.
# [2] = tested on: monkey primary hepatocytes; assay: Metabolic disposition of [^14C]-Compound 1 and [^14C]-2′-C-methyl guanosine in monkey primary hepatocytes (incubation medium, cellular extracts, nucleotide levels); type: in vitro ADME, Cynomolgus monkey
# Method: Primary hepatocytes: Freshly isolated cells from animal and human liver were obtained in suspension on ice. Cells were pelleted by centrifugation at 70-75×g (rat) or 95-90×g (monkey and human) and resuspended at 0.8 million cells per mL of platting medium (William's E supplemented with 5% FBS, 0.5% penicillin-streptomycin, 1% L-glutamine, 4 μg/mL insulin and 1 μM dexamethasone). Multi-well collagen I-coated plates (rat tail collagen type I; 12- or 6-well) were then seeded by addition of 1 mL (12-well; 0.8 million cells/well) or 2 mL (6-well; 1.6 million cells/well) of cell suspension. The plates were gently shaken to evenly distribute the cells and placed in an incubator at 37° C. for approximately 4 to 6 hours to allow cells to attach. Once cells were attached, the platting medium was removed and replaced with hepatocyte culture medium (William's E supplemented with penicillin-streptomycin, 1% L-glutamine, 1% insulin-transferrin-selenium and 0.1 μM dexamethasone). Cells were left overnight in an incubator at 37° C. to acclimatize to culture and the medium.
# Hepatocyte incubations with radiolabeled Compound 1 and 2′-C-methyl guanosine, both labeled in the C-8 position of the guanine moiety, were conducted at a final volume of 2.0 mL hepatocyte culture medium/well ([…]). Culture medium from overnight incubation of cells was removed and replaced with fresh medium, pre-warmed to 37° C., containing 1 or 10 μM [^14C]-Compound 1 ([…]) or [^14C]-2′-C-methyl guanosine (127 DPM/μmol) from a stock solution in DMSO (final DMSO concentration was 0.1%) or 50% ethanol (final ethanol concentration was 0.2%). After 1, 4, 8 and 24 hours, 0.5-1.0 mL of incubation medium was removed and stored at −20° C. until analysis (described below). The remaining medium was discarded and cell monolayers were carefully washed two times with ice-cold PBS. Following the last wash, all PBS was carefully removed and 1.0 mL of extraction solution (ice-cold 70% methanol) added. Cells were scrapped off and suspended in the extraction solution, transferred to 2 mL polypropylene microfuge tubes and intracellular contents extracted overnight at −20° C.
# Preliminary identification of putative metabolites was conducted by comparing the retention time of observed metabolites in incubation medium and cellular extracts with retention times obtained with chemically synthesized standards using the chromatography conditions described below. Further identification of 2′-C-methyl guanosine nucleotides (mono-, di- and triphosphate) was carried out by incubating cellular extract samples with alkaline phosphatase (10 units for 60 min at 37° C.) and comparing the HPLC retention times of the resulting nucleosides with that of authentic 2′-C-methyl guanosine.
# Cellular extracts were prepared by centrifugation at 16,000 RCF using an Eppendorf microcentrifuge (Eppendorf, Model 5415D) for 10 min to remove cellular debris. An aliquot of 5-10 μL of the supernatant was added to 5 mL of EcoLite™ (MP, Irvine, Calif.) liquid scintillation cocktail and radioactivity measured by liquid scintillation counting (LSC) using a Beckman Coulter LS6500 multipurpose liquid scintillation counter (Beckman Instruments, Fullerton, Calif.). The remaining sample was then dried using a Labconco refrigerated centrivap concentrator (Labconco, Kansas City, Mo.). Dry extracts were reconstituted in 120 μL of HPLC-grade water and centrifuged at 16,000 RCF using an Eppendorf microcentrifuge for 10 min. Prior to HPLC analysis (described below), radioactivity of the concentrated extracts was measured by LSC using 5 μL aliquots. Extraction recovery was then determined by comparing total radioactivity in extracts before and after drying. The remaining extract was then analyzed by HPLC with online radioactivity detection using a Flow Scintillation Analyzer Radiomatic™ 515TR. Radioactivity in the separated components was quantified by integrating the peaks using Flo-One™ Software (Perkin Elmer Life Sciences). […]
# [3] = monkey hepatocytes (Cy234), 10 μM [^14C]-Compound 1, 4 h
# [4] = monkey hepatocytes Cy230, 10 μM [^14C]-2′-C-methyl guanosine, 1 h
# [5] = monkey hepatocytes Cy230, 10 μM [^14C]-2′-C-methyl guanosine, 8 h
# [6] = monkey hepatocytes Cy230, 10 μM [^14C]-2′-C-methyl guanosine, 24 h
# [7] = monkey hepatocytes Cy234, 10 μM [^14C]-2′-C-methyl guanosine, 1 h
# [8] = monkey hepatocytes Cy234, 10 μM [^14C]-2′-C-methyl guanosine, 4 h
# [9] = monkey hepatocytes Cy234, 10 μM [^14C]-2′-C-methyl guanosine, 8 h
# [10] = monkey hepatocytes Cy234, 10 μM [^14C]-2′-C-methyl guanosine, 24 h
smiles,measurement,setting,value
"C[C@@]1(O)[C@H](O)[C@@H](COP(=O)(O)O)O[C@H]1n1cnc2c(=O)[nH]c(N)nc21 [Compound 5, [(2R)-2-methyl-β-D-ribofuranosyl]guanine 5′-monophosphate]",In vitro metabolite profile in microsomes following incubation with Compound 1 (peak detection),[1],+
same,metabolites observed in cellular extracts (% of total radioactivity),"[2]; monkey hepatocytes (Cy230, Cy234), 10 μM [^14C]-Compound 1, 8 h",3.84% and 5.38%
same,metabolites observed in cellular extracts (% of total radioactivity),"[2]; monkey hepatocytes (Cy230, Cy234), 10 μM [^14C]-Compound 1, 24 h",6.96% and 3.34%
same,2′-C-methyl guanosine nucleotide levels in cellular extracts,[2]; [3],14.3 pmol/million cells
same,metabolites observed in cellular extracts (% of total radioactivity),[2]; [3],5.47%
same,metabolites observed in medium (% of total radioactivity),"[2]; monkey hepatocytes (lot Cy234), 10 μM [^14C]-Compound 1, 4 h",19.0%
same,metabolites observed in medium (% of total radioactivity),"[2]; monkey hepatocytes (lots Cy230, Cy234), 10 μM [^14C]-Compound 1, 0 h",BLD
same,metabolites observed in medium (% of total radioactivity),"[2]; monkey hepatocytes (lots Cy230, Cy234), 10 μM [^14C]-Compound 1, 24 h",8% and 8.4% and 7.5%
same,2′-C-methyl guanosine nucleotide levels in cellular extracts,"[2]; monkey hepatocytes Cy230, 10 μM [^14C]-2′-C-methyl guanosine, 0 h",0 pmol/million cells
same,2′-C-methyl guanosine nucleotide levels in cellular extracts,[2]; [4],BLD^b (BLD = below limit of detection (0.02 pmol/million cells))
same,Major metabolites observed in cellular extracts (% of total radioactivity),[2]; [4],BLD^b (BLD = below limit of detection (30 DPM))
same,2′-C-methyl guanosine nucleotide levels in cellular extracts,[2]; [5],BLD (BLD = below limit of detection (0.02 pmol/million cells))
same,Major metabolites observed in cellular extracts (% of total radioactivity),[2]; [5],BLD (BLD = below limit of detection (30 DPM))
same,2′-C-methyl guanosine nucleotide levels in cellular extracts,[2]; [6],BLD (BLD = below limit of detection (0.02 pmol/million cells))
same,Major metabolites observed in cellular extracts (% of total radioactivity),[2]; [6],BLD (BLD = below limit of detection (30 DPM))
same,2′-C-methyl guanosine nucleotide levels in cellular extracts,"[2]; monkey hepatocytes Cy230, 10 μM [^14C]-Compound 1, 0 h",0 pmol/million cells
same,2′-C-methyl guanosine nucleotide levels in cellular extracts,"[2]; monkey hepatocytes Cy230, 10 μM [^14C]-Compound 1, 1 h",23.9 pmol/million cells
same,2′-C-methyl guanosine nucleotide levels in cellular extracts,"[2]; monkey hepatocytes Cy230, 10 μM [^14C]-Compound 1, 8 h",42.5 pmol/million cells
same,2′-C-methyl guanosine nucleotide levels in cellular extracts,"[2]; monkey hepatocytes Cy230, 10 μM [^14C]-Compound 1, 24 h",33.2 pmol/million cells
same,2′-C-methyl guanosine nucleotide levels in cellular extracts,"[2]; monkey hepatocytes Cy234, 10 μM [^14C]-2′-C-methyl guanosine, 0 h",0 pmol/million cells
same,2′-C-methyl guanosine nucleotide levels in cellular extracts,[2]; [7],0.95 pmol/million cells
same,Major metabolites observed in cellular extracts (% of total radioactivity),[2]; [7],2.19 % of total radioactivity
same,2′-C-methyl guanosine nucleotide levels in cellular extracts,[2]; [8],BLD (BLD = below limit of detection (0.02 pmol/million cells))
same,Major metabolites observed in cellular extracts (% of total radioactivity),[2]; [8],BLD (BLD = below limit of detection (30 DPM))
same,2′-C-methyl guanosine nucleotide levels in cellular extracts,[2]; [9],3.00 pmol/million cells
same,Major metabolites observed in cellular extracts (% of total radioactivity),[2]; [9],3.32 % of total radioactivity
same,2′-C-methyl guanosine nucleotide levels in cellular extracts,[2]; [10],5.50 pmol/million cells
same,Major metabolites observed in cellular extracts (% of total radioactivity),[2]; [10],5.03 % of total radioactivity
same,2′-C-methyl guanosine nucleotide levels in cellular extracts,"[2]; monkey hepatocytes Cy234, 10 μM [^14C]-Compound 1, 0 h",0 pmol/million cells
same,2′-C-methyl guanosine nucleotide levels in cellular extracts,"[2]; monkey hepatocytes Cy234, 10 μM [^14C]-Compound 1, 1 h",11.7 pmol/million cells
same,2′-C-methyl guanosine nucleotide levels in cellular extracts,"[2]; monkey hepatocytes Cy234, 10 μM [^14C]-Compound 1, 8 h",33.0 pmol/million cells
same,2′-C-methyl guanosine nucleotide levels in cellular extracts,"[2]; monkey hepatocytes Cy234, 10 μM [^14C]-Compound 1, 24 h",23.2 pmol/million cells
